Some test systems named below: ACHN renal; HL-60(TB) leukemia; K-562 leukemia; NCI-H226 lung; RPMI-8226 leukemia; SF-268 CNS; SK-MEL-28 melanoma; SNB-75 CNS; SR leukemia; SW-620 colon.
What all share (assay): growth of human tumour cells (NCI), 48 h

Structures are written as SMILES. Values joined by “and” are separate entries in the source; they are usually repeats but may differ in a detail not shown here. Equal values may be shown once.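 How tested: cells in 96-well plates exposed to compound for 48 hours at five concentrations. TGI is the concentration that stops growth completely.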 Where a SMILES comes first, the peptide text is derived from it. The star is where a group is joined. Cbz = O=C(OCc1ccccc1)* Some results are limits rather than exact numbers.

Among the data in PubChem BioAssay (NCI) are TGI values, retold here.

On to `COC(=O)C1=C(C)NC(C)=C([N+](=O)[O-])C1c1cccc(NO)c1` (stereo not given), for which the TGI in the test on ACHN renal was over 44.9 µM; with HL-60(TB) leukemia it was 5.57 µM; in the test with K-562 leukemia, over 27.1 µM; with NCI-H226 lung, over 47.3 µM; in the test with RPMI-8226 leukemia it was 12.6 µM; in the test with SF-268 CNS, over 100 µM. The TGI was over 69.4 µM with SK-MEL-28 melanoma, over 100 µM in the test on SNB-75 CNS, 8.93 µM with SR leukemia and 16.5 µM in the test on SW-620 colon.

In the case of `CC(Cc1ccc(O)c(O)c1)C(C)Cc1ccc(O)c(O)c1` (stereo not given), the TGI in the test with ACHN renal is 33.5 µM; in the test with HL-60(TB) leukemia it was 10.3 µM; in the test with K-562 leukemia, over 62.7 µM; with NCI-H226 lung, 59.8 µM; in the test with RPMI-8226 leukemia, over 63.8 µM; in the test with SF-268 CNS, 41.6 µM. For the same compound, the TGI was 31.1 µM in the test on SK-MEL-28 melanoma, 61.7 µM in the test with SNB-75 CNS, over 74.3 µM with SR leukemia and 49.9 µM in the test on SW-620 colon.

In the case of `CCOC(=O)C(C)NC(=O)C(C)NC(=O)C(C)NC(=O)C(C)NC(=O)C(C)NC(=O)C(C)NC(=O)C(C)NC(=O)OCc1ccccc1` (stereo not given) (Cbz-AAAAAAA-OEt; configuration not given here), the TGI in the test with ACHN renal, in the test with HL-60(TB) leukemia, in the test on K-562 leukemia, in the test on NCI-H226 lung, in the test with RPMI-8226 leukemia and in the test on SF-268 CNS was over 100 µM in each case. Also, the TGI in the test on SK-MEL-28 melanoma, with SNB-75 CNS, with SR leukemia and in the test on SW-620 colon was over 100 µM throughout.

As for `C[N+]1(C)CN(c2ccccc2)C2(CCN(CCCC(=O)c3cccs3)CC2)C1=O`, the TGI in the test with ACHN renal, in the test on HL-60(TB) leukemia, in the test with K-562 leukemia, in the test on NCI-H226 lung, in the test with RPMI-8226 leukemia and with SF-268 CNS was over 100 µM in each case. Moreover, the TGI with SK-MEL-28 melanoma, in the test on SNB-75 CNS, with SR leukemia and in the test on SW-620 colon was over 100 µM throughout.

For the compound `CC(=O)c1cn(-c2ccc(Cl)cc2)c(=O)c2c(N)n[nH]c12`, the TGI in the test on ACHN renal, in the test with HL-60(TB) leukemia, in the test with K-562 leukemia, in the test on NCI-H226 lung, in the test with RPMI-8226 leukemia and in the test on SF-268 CNS was over 100 µM in each case. For the same compound, the TGI in the test with SK-MEL-28 melanoma, in the test with SNB-75 CNS, in the test with SR leukemia and in the test with SW-620 colon was over 100 µM each time.

Consider `COC(=O)C1(Cc2cccc(Cl)c2)CCCCCCN1C(=O)c1ccccc1` (stereo not given), for which the TGI is 30 µM in the test on ACHN renal; 34.3 µM in the test with HL-60(TB) leukemia; 59.8 µM in the test on K-562 leukemia; 48.8 µM with NCI-H226 lung; 32.2 µM in the test on RPMI-8226 leukemia; 42.1 µM with SF-268 CNS. For the same compound, the TGI in the test on SK-MEL-28 melanoma amounted to 31.7 µM; with SNB-75 CNS, 29.6 µM; in the test with SR leukemia, 39.8 µM; in the test with SW-620 colon, 36 µM.

Take `O=C(O)CCC1(c2ccccc2)NC(=O)NC1=O` (stereo not given): the TGI in the test on ACHN renal, with HL-60(TB) leukemia, in the test with K-562 leukemia, with NCI-H226 lung, in the test on RPMI-8226 leukemia and with SF-268 CNS was over 100 µM in each case. Further, the TGI with SK-MEL-28 melanoma, with SNB-75 CNS, in the test on SR leukemia and with SW-620 colon was over 100 µM throughout.

Regarding `CC/C(Cl)=N\OC(=O)Nc1ccc(C#N)cc1`, the TGI came out at 27.4 µM with ACHN renal; 6.2 µM with HL-60(TB) leukemia; 4.28 µM in the test on K-562 leukemia; 30.9 µM in the test with NCI-H226 lung; 8.66 µM with RPMI-8226 leukemia; 33 µM with SF-268 CNS. The TGI amounted to 33.8 µM in the test with SK-MEL-28 melanoma, 28.2 µM with SNB-75 CNS, 22.7 µM with SR leukemia and 11.7 µM with SW-620 colon.

Regarding `Cc1cccc2c1C(=O)C(C1OC(=O)c3ccccc31)C2` (stereo not given), the TGI in the test with ACHN renal, in the test with HL-60(TB) leukemia, with K-562 leukemia, in the test with NCI-H226 lung, with RPMI-8226 leukemia and in the test with SF-268 CNS was over 100 µM each time. The TGI with SK-MEL-28 melanoma, in the test with SNB-75 CNS, in the test with SR leukemia and with SW-620 colon was over 100 µM throughout.

Turning to `Cc1ccc(C2=Nc3c(N)nc(N)nc3NC(c3ccccc3)C2)cc1` (stereo not given), the TGI with ACHN renal was 28.8 µM and 32 µM; with HL-60(TB) leukemia, 20.3 µM; in the test on K-562 leukemia, over 100 µM; in the test on NCI-H226 lung it was 29.3 µM and 36.7 µM; in the test on RPMI-8226 leukemia, over 100 µM; in the test with SF-268 CNS it was 29.9 µM and 31.8 µM. Moreover, the TGI in the test with SK-MEL-28 melanoma was 24.8 µM and 35.3 µM; in the test on SNB-75 CNS, 29.8 µM and 27.4 µM; in the test on SR leukemia, over 100 µM; in the test on SW-620 colon, 15.2 µM and 16.2 µM.

As to `O=C1OC(CN2CCN(c3ccccc3)CC2)CN1C(=S)Nc1ccccc1` (stereo not given), the TGI with ACHN renal, in the test on HL-60(TB) leukemia, in the test on K-562 leukemia, in the test with NCI-H226 lung, with RPMI-8226 leukemia and in the test with SF-268 CNS was over 100 µM in each case. Further, the TGI in the test with SK-MEL-28 melanoma, with SNB-75 CNS, in the test on SR leukemia and with SW-620 colon was over 100 µM in each case.

Turning to `CC(C)(C)OC(=O)NC(Cc1ccc([N+](=O)[O-])cc1)C(=O)NC(CCCCNC(=O)OCc1ccccc1)C(=O)ON1C(=O)CCC1=O` (stereo not given), the TGI with ACHN renal was over 100 µM; in the test with HL-60(TB) leukemia, over 100 µM; in the test on K-562 leukemia, 73.1 µM; with NCI-H226 lung, over 100 µM; with RPMI-8226 leukemia, over 100 µM; in the test on SF-268 CNS, over 100 µM. Also, the TGI in the test with SK-MEL-28 melanoma, in the test with SNB-75 CNS, with SR leukemia and in the test with SW-620 colon was over 100 µM throughout.

In the case of `CCN(CC)CCCNC(=O)Cc1ccccc1Nc1c(Cl)cccc1Cl`, the TGI turned out to be 20.8 µM in the test with ACHN renal; 27.5 µM with HL-60(TB) leukemia; 21.6 µM in the test with K-562 leukemia; 38.5 µM in the test with NCI-H226 lung; 29.1 µM with RPMI-8226 leukemia; 31.2 µM in the test with SF-268 CNS. The TGI in the test with SK-MEL-28 melanoma was found to be 25.4 µM; with SNB-75 CNS it was 21.8 µM; with SR leukemia it was 26 µM; in the test with SW-620 colon it was 32.8 µM.

As for `CC(C)(C)C=C=C(C(C)(C)C)P(=O)(O)O`, the TGI in the test on ACHN renal, in the test with HL-60(TB) leukemia, in the test with K-562 leukemia, with NCI-H226 lung, in the test with RPMI-8226 leukemia and in the test with SF-268 CNS was over 100 µM each time. Besides, the TGI in the test with SK-MEL-28 melanoma, in the test with SNB-75 CNS, with SR leukemia and in the test on SW-620 colon was over 100 µM in each case.

Regarding `CSCCC(NC(c1ccccc1)c1ccccc1)[P+](=O)O` (stereo not given), the TGI in the test with ACHN renal, in the test on HL-60(TB) leukemia, with K-562 leukemia, in the test on NCI-H226 lung, in the test on RPMI-8226 leukemia and in the test with SF-268 CNS was over 100 µM each time. In addition, the TGI in the test with SK-MEL-28 melanoma, with SNB-75 CNS, with SR leukemia and in the test with SW-620 colon was over 100 µM throughout.

For `CN(/N=C\c1ccc2ccccc2c1)C1=NCCCCN1`, the TGI was over 100 µM in the test with ACHN renal; 39.9 µM with HL-60(TB) leukemia; 42.5 µM in the test with K-562 leukemia; over 100 µM in the test on NCI-H226 lung; 56.9 µM in the test with RPMI-8226 leukemia; over 100 µM in the test with SF-268 CNS. Besides, the TGI with SK-MEL-28 melanoma is 31.1 µM; in the test with SNB-75 CNS, 59.3 µM; in the test with SR leukemia, 68.7 µM; in the test on SW-620 colon it was 37.8 µM.

Consider `C=C1C(=O)OC2/C=C(\C)C(O)/C=C\C(C)(O)CC(OC(=O)/C(C)=C/C)C12` (stereo not given), for which the TGI is 54.1 µM in the test on ACHN renal; over 64 µM with HL-60(TB) leukemia; over 84.6 µM in the test with K-562 leukemia; over 100 µM in the test on NCI-H226 lung; over 68.6 µM in the test on RPMI-8226 leukemia; over 100 µM with SF-268 CNS. Besides, the TGI is 35.4 µM with SK-MEL-28 melanoma, over 100 µM with SNB-75 CNS, 55.7 µM in the test with SR leukemia and 34.4 µM in the test with SW-620 colon.

Regarding `Cc1nc2c(-c3ccccc3)[nH]c(C)c2c(=O)o1`, the TGI in the test on ACHN renal, in the test on HL-60(TB) leukemia, with K-562 leukemia, with NCI-H226 lung, in the test with RPMI-8226 leukemia and in the test on SF-268 CNS was over 100 µM in each case. Also, the TGI in the test with SK-MEL-28 melanoma, in the test with SNB-75 CNS, with SR leukemia and in the test with SW-620 colon was over 100 µM in each case.

Consider `NC(CCCCNc1ccn(C2OC(CO)C(O)C2O)c(=O)n1)C(=O)O` (stereo not given), for which the TGI with ACHN renal, in the test with HL-60(TB) leukemia, in the test on K-562 leukemia, in the test with NCI-H226 lung, with RPMI-8226 leukemia and in the test with SF-268 CNS was over 100 µM throughout. The TGI in the test on SK-MEL-28 melanoma, in the test on SNB-75 CNS, in the test on SR leukemia and with SW-620 colon was over 100 µM in each case.

Consider `CC(=O)Nc1ccc(-c2nnc(SCC(=O)Nc3ccc(C)cc3)o2)cc1`, for which the TGI in the test on ACHN renal was 70.3 µM; with HL-60(TB) leukemia, 64.4 µM; in the test with K-562 leukemia it was over 100 µM; in the test with NCI-H226 lung, 52.4 µM; with RPMI-8226 leukemia, 74.7 µM; in the test with SF-268 CNS, 44.2 µM. Moreover, the TGI in the test with SK-MEL-28 melanoma was found to be 31.4 µM; with SNB-75 CNS, 58.6 µM; in the test on SR leukemia, 98.2 µM; with SW-620 colon, 33.3 µM.
